# According to patent publication EP2758382B1, “HETEROCYCLOCARBONYLAMINOTHIAZOLES, COSMETIC AND DERMATOLOGICAL PREPARATIONS CONTAINING THEM, AND THEIR USE FOR THE TREATMENT AND PROPHYLAXIS OF UNWANTED PIGMENTATION OF THE SKIN” (Beiersdorf AG, priority 2011, dated 2013):
# Target: T1, humane Tyrosinase (Homo sapiens, UniProt P14679)
# T1 sequence (P14679 19-529): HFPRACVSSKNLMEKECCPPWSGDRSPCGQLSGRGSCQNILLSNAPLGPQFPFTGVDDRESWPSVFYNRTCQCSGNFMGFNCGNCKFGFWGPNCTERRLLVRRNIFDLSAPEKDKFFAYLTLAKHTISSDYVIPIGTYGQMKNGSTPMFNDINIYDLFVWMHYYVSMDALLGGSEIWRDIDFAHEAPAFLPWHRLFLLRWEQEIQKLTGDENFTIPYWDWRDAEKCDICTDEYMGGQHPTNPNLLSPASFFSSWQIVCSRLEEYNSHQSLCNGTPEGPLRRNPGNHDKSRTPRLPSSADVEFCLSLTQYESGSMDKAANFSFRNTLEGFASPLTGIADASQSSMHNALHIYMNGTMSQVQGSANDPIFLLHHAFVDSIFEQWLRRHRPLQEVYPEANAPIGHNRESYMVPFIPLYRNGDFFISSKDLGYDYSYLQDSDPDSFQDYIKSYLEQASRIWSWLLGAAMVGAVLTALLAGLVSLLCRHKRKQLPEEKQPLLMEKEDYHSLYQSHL
# Assay: Enzyme test: conversion of L-DOPA to L-Dopachinon by human tyrosinase, MBTH detection, absorption at 490 nm
# Assay type: biochemical
# Conditions: Konzentration 10 µg/mL; substrate L-DOPA
# Description: Die Wirksamkeit der Thiazole wurde mit einem Enzymtest belegt, in der Umsatz von L-DOPA zu L-Dopachinon durch eine humane Tyrosinase gemessen wurde. Bei dieser literaturbekannten Methode (Winder, A.J. and Harris, H., New assays for the tyrosine hydroxylase and dopa oxidase activities of tyrosinase. Eur. J. Blochem. (1991), 198, 317-26) wird das Reaktionsprodukt L-Dopaquinone mit MBTH (3-methyl-2-benzothiazoline hydrazone) zu einer pinkfarbenen Substanz umgesetzt, deren Zunahme über die Zeit durch Absorption bei 490 nm gemessen wird. In Tabelle ein sind Wirksamkeitsdaten für einige der beanspruchten Substanzen beispielhaft dargestellt. Daraus lässt sich schließen, dass die erfindungsgemäßen Substanzen äußerst effektive pigmentierungs-inhibierende Substanzen sind.
row,Inhibition (% der Kontrolle),Compound
1,94 % der Kontrolle,"CCN1CCN(C(=O)Nc2nc(-c3ccc(O)cc3O)cs2)CC1 [N-(4-(2,4-dihydroxyphenyl)thiazol-2-yl)-4-ethylpiperazin-1-carboxamid]"
2,97 % der Kontrolle,"O=C(Nc1nc(-c2ccc(O)cc2O)cs1)N1CCOCC1 [N-(4-(2,4-dihydroxyphenyl)thiazol-2-yl)morpholin-4-carboxamid]"
3,97 % der Kontrolle,"O=C(Nc1nc(-c2ccc(O)cc2O)cs1)N1CCCCC1 [N-(4-(2,4-dihydroxyphenyl)thiazol-2-yl)piperidin-1-carboxamid]"
4,94 % der Kontrolle,"O=C(Nc1nc(-c2ccc(O)cc2O)cs1)N1CCNCC1 [N-(4-(2,4-dihydroxyphenyl)thiazol-2-yl)piperazin-1-carboxamid]"

# The next lines start with the molecule.
row,Compound,Inhibition (% der Kontrolle)
1,"Oc1ccc(-c2csc(N3CCOCC3)n2)c(O)c1 [4-(2-Morpholinothiazol-4-yl)benzen-1,3-diol]",91 % der Kontrolle
2,"Oc1ccc(-c2csc(N3CCCCC3)n2)c(O)c1 [4-(2-(Piperidin-1-yl)thiazol-4-yl)benzen-1,3-diol]",82 % der Kontrolle
3,"CCN1CCN(c2nc(-c3ccc(O)cc3O)cs2)CC1 [4-(2-(4-Ethylpiperazin-1-yl)thiazol-4-yl)benzen-1,3-diol]",91 % der Kontrolle
4,"Oc1ccc(-c2csc(N3CCNCC3)n2)c(O)c1 [4-(2-(Piperazin-1-yl)thiazol-4-yl)benzen-1,3-diol]",93 % der Kontrolle
